Assay results from patent US5041567A, “Antibacterial monic acid derivatives” (Beecham Group plc, priority 1982, dated 1991).
Converted amounts (≈) assume the structure as drawn. Read-outs that look alike come from different tables or passages of the source.

Columns and labels:
M. suipneumoniae NB12 = test: MIC against mycoplasma in vitro; type: cell-based
M. suipneumoniae JF 435 = test: MIC against mycoplasma in vitro; type: cell-based; settings: M. suipneumoniae JF 435, 6 days, 37° C.
M. suipneumoniae HK(2) = test: MIC against mycoplasma in vitro; type: cell-based; settings: M. suipneumoniae HK(2), 6 days, 37° C.
M. suipneumoniae Str. 11 = test: MIC against mycoplasma in vitro; type: cell-based
[1] = test system: M. suipneumoniae J2206/183^b; test: MIC against mycoplasma in vitro; type: cell-based; settings: M. suipneumoniae J2206/183^b, 6 days, 37° C.
M. suipneumoniae MS 16 = test: MIC against mycoplasma in vitro; type: cell-based
M. suipneumoniae UCD 1 = test: MIC against mycoplasma in vitro; type: cell-based; settings: M. suipneumoniae UCD 1, 6 days, 37° C.
M. suipneumoniae TAM 6N = test: MIC against mycoplasma in vitro; type: cell-based; settings: M. suipneumoniae TAM 6N, 6 days, 37° C.
[2] = test system: M. suipneumoniae NCTC 10110; test: MIC against mycoplasma in vitro; type: cell-based; settings: M. suipneumoniae NCTC 10110, 6 days, 37° C.
M. hyorhinis ATCC 23234 = test: MIC against mycoplasma in vitro; type: cell-based; settings: M. hyorhinis ATCC 23234, 6 days, 37° C.
M. hyorhinis ATCC 25021 = test: MIC against mycoplasma in vitro; type: cell-based; settings: M. hyorhinis ATCC 25021, 6 days, 37° C.
M. bovis NCTC 10131 = test: microbe, parasite or virus in culture; type: cell-based
[3] = test system: M. bovigenitalium ATCC 14173; test: MIC against mycoplasma in vitro; type: cell-based; settings: M. bovigenitalium ATCC 14173, 6 days, 37° C.
M. dispar NCTC 10125 = test: MIC against mycoplasma in vitro; type: cell-based
M. gallisepticum S6 = test: MIC against mycoplasma in vitro; type: cell-based; settings: M. gallisepticum S6, 6 days, 37° C.
P. mirabilis 889 = test: MIC against human bacteria in vitro; type: cell-based; settings: P. mirabilis 889, 5% chocolated horse blood agar, 18 hours
K. aerogenes A = test: MIC against human bacteria in vitro; type: cell-based; settings: K. aerogenes A, 5% chocolated horse blood agar, 18 hours
[4] = test system: Pasteurella multocida 1633; test: MIC against human bacteria in vitro; type: cell-based; settings: Pasteurella multocida 1633, 5% chocolated horse blood agar, 18 hours
Staph. aureus Oxford [5] = test: MIC against human bacteria in vitro; type: cell-based; settings: Staph. aureus Oxford, 5% chocolated horse blood agar, 18 hours
Staph. aureus W2827 = test: MIC against human bacteria in vitro; type: cell-based; settings: Staph. aureus W2827, 5% chocolated horse blood agar, 18 hours
Strep. faecalis I = test: MIC against human bacteria in vitro; type: cell-based; settings: Strep. faecalis I, 5% chocolated horse blood agar, 18 hours
Strep. agalactiae 2788-B = test: MIC against human bacteria in vitro; type: cell-based; settings: Strep. agalactiae 2788-B, 5% chocolated horse blood agar, 18 hours
Strep. pneumoniae CN33 = test: MIC against human bacteria in vitro; type: cell-based; settings: Strep. pneumoniae CN33, 5% chocolated horse blood agar, 18 hours
S. typhimurium S18 = test: MIC against veterinary bacteria in vitro
Experimental: (§1) The activity of the compounds of the Examples against various veterinarily important bacteria, was assayed in vitro using two-fold serial dilutions in Diagnostic Sensitivity Test Agar inoculated with 10^4 organisms.

Bord. bronchiseptica B08 = test: MIC against veterinary bacteria in vitro
Experimental: as §1

Past. multocida PA2 = test: MIC against veterinary bacteria in vitro
Experimental: as §1

[6] = test system: Erysipelothrix rhusiopathiae NCTC 8163; test: MIC against veterinary bacteria in vitro
Experimental: as §1

[7] = test system: Corynebacterium pyogenes CY1; test: MIC against veterinary bacteria in vitro
Experimental: as §1

[8] = test system: Staph. aureus B4 (pen. resistant); test: MIC against veterinary bacteria in vitro
Experimental: as §1

[9] = test system: Staph. aureus 152 (pen. sens); test: MIC against veterinary bacteria in vitro
Experimental: as §1

Staph. aureus Oxford [10] = test: MIC against veterinary bacteria in vitro
Experimental: as §1

[11] = test system: Strep. suis (group D) SPS11; test: MIC against veterinary bacteria in vitro
Experimental: as §1

Strep. dysgalactiae SPD1 = test: MIC against veterinary bacteria in vitro
Experimental: as §1

[12] = Mesomycoplasma hyopneumoniae, 144 h, read-out: MIC
[13] = Staphylococcus aureus, read-out: MIC

With `C/C(=C\c1ncc(-c2ccc(C(=O)O)cc2)o1)C[C@@H]1OC[C@H](C[C@@H]2O[C@H]2[C@@H](C)[C@H](C)O)[C@@H](O)[C@H]1O` [Example 17, Sodium 4-[2-(1-normon-2-yl)-5-oxazolyl] benzoate A] the MIC (M. suipneumoniae NB12; Mesomycoplasma hyopneumoniae, NB12, 144 h) was 2.5 µg/mL, the MIC (M. suipneumoniae JF 435; Mesomycoplasma hyopneumoniae, JF435, 144 h, read-out: MIC) was 5 µg/mL and the MIC (M. suipneumoniae HK(2); [12]) was 10 µg/mL. For the same molecule, the MIC (M. suipneumoniae Str. 11; Mesomycoplasma hyopneumoniae, STR.11, 144 h) was 2.5 µg/mL, the MIC [1, 12] was 5 µg/mL and the MIC (M. suipneumoniae MS 16; Mesomycoplasma hyopneumoniae, MS16, 144 h) was 2.5 µg/mL. The MIC (M. suipneumoniae UCD 1; Mesomycoplasma hyopneumoniae, UCD1, 144 h, read-out: MIC) was 5 µg/mL, the MIC (M. suipneumoniae TAM 6N; Mesomycoplasma hyopneumoniae, TAM6N, 144 h, read-out: MIC) was 10 µg/mL and the MIC ([2]; Mesomycoplasma hyopneumoniae, NCTC10110, 144 h, read-out: MIC) was > 10 µg/mL. It also gave an MIC (M. hyorhinis ATCC 23234; Mesomycoplasma hyorhinis, ATCC23234, 144 h, read-out: MIC) of 5 µg/mL, an MIC (M. hyorhinis ATCC 25021; Mesomycoplasma hyorhinis, ATCC25021, 144 h, read-out: MIC) of 5 µg/mL and an MIC (M. bovis NCTC 10131; NCTC10131, 144 h) of 2.5 µg/mL. The MIC ([3]; 144 h, read-out: MIC) was 5 µg/mL, the MIC (M. dispar NCTC 10125; 144 h) was 2.5 µg/mL and the MIC (M. gallisepticum S6; Mycoplasmoides gallisepticum, 144 h, read-out: MIC) was > 10 µg/mL. The MIC (P. mirabilis 889; Proteus mirabilis, read-out: MIC) was > 64 µg/mL, the MIC (K. aerogenes A; Klebsiella aerogenes, read-out: MIC) was > 64 µg/mL and the MIC ([4]; read-out: MIC) was 8 µg/mL. For the same molecule, the MIC (Staph. aureus Oxford [5]; [13]) was 32 µg/mL, the MIC (Staph. aureus W2827; [13]) was > 64 µg/mL and the MIC (Strep. faecalis I; Enterococcus faecalis, read-out: MIC) was > 64 µg/mL. The MIC (Strep. agalactiae 2788-B; Streptococcus agalactiae, read-out: MIC) was 32 µg/mL, the MIC (Strep. pneumoniae CN33; Streptococcus pneumoniae, read-out: MIC) was 64 µg/mL and the MIC (S. typhimurium S18; Salmonella enterica, TYPHIMURIUM, 18 h) was > 80 µg/mL. For the same molecule, the MIC (Bord. bronchiseptica B08; Bordetella bronchiseptica, B08, 18 h) was > 80 µg/mL, the MIC (Past. multocida PA2; Pasteurella multocida, PA2, 18 h) was 1.25 µg/mL and the MIC ([6]; Erysipelothrix rhusiopathiae, NCTC8163, 18 h) was 80 µg/mL. For the same molecule, the MIC ([7]; CY1, 18 h) was > 80 µg/mL, the MIC ([8]; Staphylococcus aureus, 18 h) was 10 µg/mL and the MIC ([9]; Staphylococcus aureus, 18 h) was 10 µg/mL. The MIC (Staph. aureus Oxford [10]; Staphylococcus aureus, 18 h) was 20 µg/mL, the MIC ([11]; Streptococcus suis, 18 h) was 40 µg/mL and the MIC (Strep. dysgalactiae SPD1; Streptococcus dysgalactiae, SPD1, 18 h) was 2.5 µg/mL.

`CC(=Cc1cc(C)no1)CC1OCC(CC2OC2C(C)C(C)O)C(O)C1O` (stereo not drawn) [Example 30, 3-Methyl-5-(1-normon-2-yl) isoxazole A] was tested, and the MIC (M. suipneumoniae NB12; M. suipneumoniae NB12, Friis broth, 0.9% agarose, 6 days, 37° C.) was 5.0 µg/mL (≈ 13.1 µM), the MIC (M. suipneumoniae JF 435) was 5.0 µg/mL (≈ 13.1 µM) and the MIC (M. suipneumoniae HK(2)) was 2.5 µg/mL (≈ 6.55 µM). For the same molecule, the MIC (M. suipneumoniae Str. 11; M. suipneumoniae Str. 11, 6 days, 37° C.) was 2.5 µg/mL (≈ 6.55 µM), the MIC [1] was 2.5 µg/mL (≈ 6.55 µM) and the MIC (M. suipneumoniae MS 16; M. suipneumoniae MS 16, 6 days, 37° C.) was 2.5 µg/mL (≈ 6.55 µM). It also gave an MIC (M. suipneumoniae UCD 1) of 2.5 µg/mL (≈ 6.55 µM), an MIC (M. suipneumoniae TAM 6N) of 5.0 µg/mL (≈ 13.1 µM) and an MIC [2] of 2.5 µg/mL (≈ 6.55 µM). It also gave an MIC (M. hyorhinis ATCC 23234) of 0.5 µg/mL (≈ 1.31 µM), an MIC (M. hyorhinis ATCC 25021) of 0.5 µg/mL (≈ 1.31 µM) and an MIC (M. bovis NCTC 10131; M. bovis NCTC 10131, 6 days, 37° C.) of 0.25 µg/mL (≈ 0.655 µM). For the same molecule, the MIC [3] was 0.25 µg/mL (≈ 0.655 µM), the MIC (M. dispar NCTC 10125; M. dispar NCTC 10125, 6 days, 37° C.) was 0.25 µg/mL (≈ 0.655 µM) and the MIC (M. gallisepticum S6) was > 10 µg/mL. The MIC (P. mirabilis 889) was > 128 µg/mL, the MIC (K. aerogenes A) was > 128 µg/mL and the MIC [4] was 8.0 µg/mL (≈ 21 µM). The MIC (Staph. aureus Oxford [5]) was 8.0 µg/mL (≈ 21 µM), the MIC (Staph. aureus W2827) was 16 µg/mL (≈ 41.9 µM) and the MIC (Strep. faecalis I) was > 128 µg/mL. For the same molecule, the MIC (Strep. agalactiae 2788-B) was 128 µg/mL (≈ 336 µM), the MIC (Strep. pneumoniae CN33) was 128 µg/mL (≈ 336 µM) and the MIC (S. typhimurium S18; S. typhimurium S18, Diagnostic Sensitivity Test Agar, 18 hours) was > 80 µg/mL. The MIC (Bord. bronchiseptica B08; Bord. bronchiseptica B08, Diagnostic Sensitivity Test Agar, 18 hours) was > 80 µg/mL, the MIC (Past. multocida PA2; Past. multocida PA2, Diagnostic Sensitivity Test Agar, 18 hours) was 0.312 µg/mL (≈ 0.818 µM) and the MIC ([6]; Erysipelothrix rhusiopathiae NCTC 8163, Diagnostic Sensitivity Test Agar, 18 hours) was > 80 µg/mL. The MIC ([7]; Corynebacterium pyogenes CY1, Diagnostic Sensitivity Test Agar, 18 hours) was > 80 µg/mL, the MIC ([8]; Staph. aureus B4 (pen. resistant), Diagnostic Sensitivity Test Agar, 18 hours) was 1.25 µg/mL (≈ 3.28 µM) and the MIC ([9]; Staph. aureus 152 (pen. sens), Diagnostic Sensitivity Test Agar, 18 hours) was 2.5 µg/mL (≈ 6.55 µM). For the same molecule, the MIC (Staph. aureus Oxford [10]; Staph. aureus Oxford, Diagnostic Sensitivity Test Agar, 18 hours) was 2.5 µg/mL (≈ 6.55 µM), the MIC ([11]; Strep. suis (group D) SPS11, Diagnostic Sensitivity Test Agar, 18 hours) was > 80 µg/mL and the MIC (Strep. dysgalactiae SPD1; Strep. dysgalactiae SPD1, Diagnostic Sensitivity Test Agar, 18 hours) was 40 µg/mL (≈ 105 µM).
